Here are results for ten molecules from patent publication US11491161B2, “Methods and compositions for treatment of pulmonary hypertension and other lung disorders” (Respira Therapeutics, Inc., priority 2016, dated 2022).

Series [1] in a line: particle size distribution of micronized drug substance by laser diffraction. It counts as physicochemical. The conditions noted are these: hydrochloride trihydrate. From the text:
The coarse drug substance as received was forced into the milling chamber by a compressed air stream, through a Venturi tube with a higher pressure (P_vent) and metered into the mill at the desired rate (F-feed). Nitrogen was used as grinding gas and adjusted to the desired pressure (P_grind) to mill the drug particles. The micronized material was characterized for process yield gravimetrically, particle size distribution (PSD) by laser diffraction (Malvern Masersizer) and moisture content by Karl Fischer (KF) analysis. A finer micronized drug substance PSD as evidenced with smaller volume weighted median diameter (Dv50=1.8 μm) and linear interpolated size of the 90th percentile (Dv90=4.5 μm) was obtained using higher Venturi (P_Vent=7.5 bar) and grinding pressures (P_Grind=6 bar) as compared with a batch with a slightly coarser PSD of […] when using the jet mill operated at lower pressures (ca. P_Vent=5.5 bar and P_Grind=4.5 bar) (Table 1).

A further series relates to plasma proteins. Conditions: cited from earlier work.
The conditions of series [2]: octanol-water partition coefficient; cited from earlier work.
The conditions of series [3]: in vivo; cited from earlier work.
The target in another series is PDE5 enzyme (Homo sapiens, UniProt O76074). The conditions noted are these: cited from earlier work.
The conditions of series [4]: in vivo; cited from earlier work. The source holds these as a separate data set.
In another series the test system is human patients with PAH. The conditions noted are these: 5 mg orally twice per day (b.i.d.); cited from earlier work.
For series [5] the following is noted: inhaled, following pulmonary administration; peak at first time-point tested; cited from earlier work.

Structures are written as SMILES. Where a name gives a salt, the structure may show the parent alone.

For orientation: log P means a log measure of how a compound divides between an organic and an aqueous phase. The half-life is the time in which the quantity being followed falls by half.

Regarding `CCCc1nc(C)c2c(=O)[nH]c(-c3cc(S(=O)(=O)N4CCN(CC)CC4)ccc3OCC)nn12` [Batch 1, vardenafil hydrochloride trihydrate], in series [1], the “PSD by Laser diffraction Dv10” value is listed as 0.5 μm, the “PSD by Laser diffraction Dv50” value was 1.8 μm, the “PSD by Laser diffraction Dv90” value was 4.5 μm and the “PSD by Laser diffraction Span” value is given as 2.2.
The matching figures for `CCCc1nc(C)c2c(=O)[nH]c(-c3cc(S(=O)(=O)N4CCN(CC)CC4)ccc3OCC)nn12` [Batch 2, vardenafil hydrochloride trihydrate]: 0.7 μm, 2.9 μm, 5.5 μm and 1.7.
Take `COc1ccc(CN=c2[nH]c(N3CCC[C@H]3CO)ncc2C(=O)NCc2ncccn2)cc1Cl` [avanafil, (S)-4-[(3-chloro-4-methoxybenzyl)amino]-2-[2-(hydroxymethyl)-1-pyrrolidinyl]-N-(2-pyrimidinylmethyl)-5-pyrimidinecarboxamide]: the “protein binding in the systemic circuit” value with plasma proteins was 99%. Besides, in series [2], the “log P” value is recorded as 2.6.
In the case of `COc1ccccc1Oc1c(NS(=O)(=O)c2ccc(C(C)(C)C)cc2)nc(-c2ncccn2)nc1OCCO` [bosentan], the “protein binding in the systemic circuit” value with plasma proteins was 98%. Further, the “log P” value in series [2] was 3.7.
Take `CCCCC[C@H](O)/C=C/[C@@H]1[C@H]2C/C(=C/CCCC(=O)O)O[C@H]2C[C@H]1O` [epoprostenol, (5Z,9α,11α,13E,15S)-6,9-epoxy-11,15-dihydroxyprosta-5,13-dien-1-oic acid]: the lipophilicity (log P) in series [2] is 2.9.
On to `CC#CCC(C)[C@H](O)/C=C/[C@@H]1[C@H]2C/C(=C/CCCC(=O)O)C[C@H]2C[C@H]1O` (stereo partly drawn) [iloprost, (E)-(3aS, 4R, 5R, 6aS)-hexahydro-5-hydroxy-4-[(E)-(3S,4RS)-3-hydroxy-4-methyl-1-octen-6-ynyl]-Δ^2(1H),Δ-pentalenevaleric acid], for which, in series [2], the “log P” value is reported as 4.8. The duration of action entry in series [3] is “about 30 min”.
Take `CCCc1nn(C)c2c(=O)[nH]c(-c3cc(S(=O)(=O)N4CCN(C)CC4)ccc3OCC)nc12` [sildenafil, 1-[[3-(6,7-dihydro-1-methyl-7-oxo-3-propyl-1H-pyrazolo[4,3-d]pyrimidin-5-yl)-4-ethoxyphenyl]sulfonyl]-4-methylpiperazine]: the “protein binding in the systemic circuit” value with plasma proteins is recorded as 96%. Further, at PDE5 enzyme, the “half-life at the catalytic site on the PDE enzyme” value (from here on “half-life at the catalytic site”) is 3 min.
For the molecule `CN1CC(=O)N2[C@H](c3ccc4c(c3)OCO4)c3[nH]c4ccccc4c3C[C@@H]2C1=O` [tadalafil, (6R,12aR)-2,3,6,7,12,12a-hexahydro-2-methyl-6-(1,3-benzodioxol-5-yl)-pyrazino[1′,2′:1,6]pyrido[3,4-b]indole-1,4-dione], the “protein binding in the systemic circuit” value with plasma proteins is 94%. The “half-life at the catalytic site” value on PDE5 enzyme was 7 min.
Take `CCCCC[C@H](O)CC[C@@H]1[C@H]2Cc3cccc(OCC(=O)O)c3C[C@H]2C[C@H]1O` [treprostinil, (1R,2R,3aS,9aS)-[[2,3,3a,4,9,9a-hexahydro-2-hydroxy-1-[(3S)-3-hydroxyoctyl]-1H-benz[f]inden-5-yl]oxy]acetic acid]: the oral bioavailability in series [4] is 18%. In addition, the “log P” value in series [2] is on record as 4.1.
Turning to `CCCc1nc(C)c2c(=O)nc(-c3cc(S(=O)(=O)N4CCN(CC)CC4)ccc3OCC)[nH]n12` [vardenafil, 1-[[3-(1,4-dihydro-5-methyl-4-oxo-7-propylimidazo[5,1-f][1,2,4]triazin-2-yl)-4-ethoxyphenyl]sulfonyl]-4-ethyl-piperazine], the “protein binding in the systemic circuit” value in the series with plasma proteins is given as 93-95%. In addition, the “half-life at the catalytic site” value on PDE5 enzyme is on record as “about 2 hr”. For the same molecule, the “safety and efficacy in PAH” value in the series on human patients with PAH is “safe and effective”. The tmax in series [5] is no more than 2 min.
